# Experimental data from the supplement of paper PMC10307832.
# What was measured:
# Assay in all cases: relative viability (nuclei count vs DMSO), 5 days (fraction); higher = more cells survive
# CX-5461 + Trametinib = compound: Cc1cnc(CNC(=O)c2c(=O)c3ccc(N4CCCN(C)CC4)nc3n3c2sc2ccccc23)cn1 [CX-5461] + CC(=O)Nc1cccc(-n2c(=O)n(C3CC3)c(=O)c3c(Nc4ccc(I)cc4F)n(C)c(=O)c(C)c32)c1 [Trametinib] (partner 0.02 µM)
# Summary of the method: (§1)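 Lung cancer cell lines were seeded in 1536-well plates and dosed by pin tool the next day, with either a single drug or a fixed anchor-drug dose combined with five library-drug doses (not always all listed) spaced in √10 steps. Five days later, one step fixed the cells and stained their nuclei (final 0.05% Triton X-100, 1% formaldehyde, 1 ug/ml Hoechst), and nuclei were counted on 4× images. Relative viability is the nuclei count in treated wells divided by the count in vehicle wells, and each value is the median of duplicate plates.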
# CX-5461 + Palbociclib = compound: Cc1cnc(CNC(=O)c2c(=O)c3ccc(N4CCCN(C)CC4)nc3n3c2sc2ccccc23)cn1 [CX-5461] + CC(=O)c1c(C)c2cnc(Nc3ccc(N4CCNCC4)cn3)nc2n(C2CCCC2)c1=O [Palbociclib] (partner 0.5 µM)
# Summary of the method: as §1
# CX-5461 + Navitoclax = compound: Cc1cnc(CNC(=O)c2c(=O)c3ccc(N4CCCN(C)CC4)nc3n3c2sc2ccccc23)cn1 [CX-5461] + CC1(C)CCC(c2ccc(Cl)cc2)=C(CN2CCN(c3ccc(C(=O)NS(=O)(=O)c4ccc(N[C@H](CCN5CCOCC5)CSc5ccccc5)c(S(=O)(=O)C(F)(F)F)c4)cc3)CC2)C1 [Navitoclax] (partner 0.5 µM)
# Summary of the method: as §1
# CX-5461 + Linsitinib = compound: Cc1cnc(CNC(=O)c2c(=O)c3ccc(N4CCCN(C)CC4)nc3n3c2sc2ccccc23)cn1 [CX-5461] + C[C@]1(O)C[C@@H](c2nc(-c3ccc4ccc(-c5ccccc5)nc4c3)c3c(N)nccn32)C1 [Linsitinib] (partner 1 µM)
# Summary of the method: as §1
Cell Line,relative viability (CX-5461 + Trametinib; first compound 0.01 µM),relative viability (CX-5461 + Trametinib; first compound 0.03162 µM),relative viability (CX-5461 + Trametinib; first compound 0.1 µM),relative viability (CX-5461 + Trametinib; first compound 0.3162 µM),relative viability (CX-5461 + Trametinib; first compound 1 µM),relative viability (CX-5461 + Palbociclib; first compound 0.01 µM),relative viability (CX-5461 + Palbociclib; first compound 0.03162 µM),relative viability (CX-5461 + Palbociclib; first compound 0.1 µM),relative viability (CX-5461 + Palbociclib; first compound 0.3162 µM),relative viability (CX-5461 + Palbociclib; first compound 1 µM),relative viability (CX-5461 + Navitoclax; first compound 0.01 µM),relative viability (CX-5461 + Navitoclax; first compound 0.03162 µM),relative viability (CX-5461 + Navitoclax; first compound 0.1 µM),relative viability (CX-5461 + Navitoclax; first compound 0.3162 µM),relative viability (CX-5461 + Navitoclax; first compound 1 µM),relative viability (CX-5461 + Linsitinib; first compound 0.01 µM),relative viability (CX-5461 + Linsitinib; first compound 0.03162 µM),relative viability (CX-5461 + Linsitinib; first compound 0.1 µM),relative viability (CX-5461 + Linsitinib; first compound 0.3162 µM),relative viability (CX-5461 + Linsitinib; first compound 1 µM)
HCC-366,0.345,0.389,0.443,0.412,0.306,0.451,0.546,0.355,0.308,0.287,1.04,1.06,1.16,1.1,1.11,0.574,0.738,0.581,0.573,0.615
HCC-827,0.509,0.583,0.617,0.494,0.582,0.452,0.529,0.538,0.437,0.582,1.07,1.01,1.02,1.02,0.975,0.901,1.01,0.999,0.946,0.957
HOP-62,0.404,0.37,0.388,0.419,0.363,0.415,0.446,0.461,0.413,0.415,0.908,1.16,1.21,–,1.02,1.08,0.813,0.922,0.858,0.997
IA-LM,–,–,–,–,–,–,–,–,–,–,0.941,0.993,0.724,0.769,0.272,0.644,0.863,0.852,0.688,0.415
LC-2-ad,0.901,0.96,0.931,0.912,0.847,0.474,0.552,0.42,0.469,0.47,0.449,0.533,0.434,0.553,0.362,0.808,0.886,0.829,0.858,0.833
LCLC-97TM1,0.199,0.216,0.176,0.193,0.213,0.211,0.254,0.198,0.208,0.227,0.405,0.523,0.325,–,0.467,0.176,0.205,0.168,–,0.212
LCLC-103H,0.629,0.687,0.626,0.674,0.663,0.496,0.493,0.458,0.466,0.464,–,–,–,–,–,1.14,1.16,0.895,1.21,1.12
LK-2,0.83,0.818,0.834,0.707,0.725,0.54,0.972,0.724,–,0.564,–,0.984,0.939,0.319,0.904,0.363,0.715,0.598,–,0.515
LOU-NH91,0.796,0.813,0.777,0.613,0.78,0.516,0.557,0.513,0.439,0.478,0.7,0.694,0.735,0.472,0.575,1,1.04,0.999,0.715,0.842
NCI-H358,0.125,0.108,0.0974,0.102,0.0846,0.135,0.124,0.135,0.0878,0.084,–,–,–,–,–,0.817,0.748,0.345,0.314,0.304
NCI-H522,0.734,0.86,0.815,–,0.751,1.04,0.957,1.18,–,0.993,–,–,–,–,–,–,–,–,–,–
NCI-H596,0.763,0.819,0.73,0.836,0.756,–,–,–,–,–,0.928,1.01,1.18,0.98,1.02,1.11,1.06,1.21,1.15,1.1
NCI-H650,1.06,0.938,0.991,1.05,0.911,0.319,0.362,0.334,0.336,0.323,–,–,–,–,–,0.955,0.999,0.697,0.571,0.373
NCI-H661,0.647,0.621,0.544,0.432,0.376,0.418,0.374,0.368,0.367,0.337,–,–,–,–,–,0.593,0.721,0.87,–,0.433
NCI-H1299,–,–,–,–,–,–,–,–,–,–,1.1,1.06,1.04,1.04,1.05,0.942,0.977,1.04,1.01,0.831
NCI-H1563,–,–,–,–,–,–,–,–,–,–,–,–,–,–,–,1.19,1.14,0.894,0.995,0.664
NCI-H1648,0.47,0.514,0.488,0.534,0.509,0.32,0.267,0.254,0.274,0.284,–,–,–,–,–,–,–,–,–,–
NCI-H1650,0.564,0.447,0.532,0.678,0.207,0.374,0.364,0.35,0.289,0.151,1.29,1.02,–,1.23,0.2,–,–,–,–,–
NCI-H1703,–,–,–,–,–,–,–,–,–,–,1.22,1.28,0.932,1.13,0.313,0.374,1.22,0.898,0.223,0.423
NCI-H2170,0.987,0.976,0.971,0.952,0.862,0.412,0.361,0.414,0.406,0.422,0.627,0.585,0.698,0.532,0.665,–,–,–,–,–
NCI-H2342,0.787,0.81,0.832,0.871,0.918,0.513,0.505,0.486,0.531,0.522,–,–,–,–,–,–,–,–,–,–
SW 900,0.664,0.84,–,0.548,0.829,0.533,0.538,–,0.621,0.519,–,–,–,–,–,–,–,–,–,–
